Data: patent US20090304692A1, “TRIAZINE COMPOUNDS AS PI3 KINASE AND MTOR INHIBITORS” (Wyeth, priority 2008, published 2009)
Values joined by “and” are separate entries in the source; they are usually repeats but may differ in a detail not shown here. Equal entries are not always repeated. Where two headings read alike, the source gives them in different places.

How the values were obtained:
[1] = test system: human prostate PC3-mm2 tumor cell line; assay: In vitro cell culture growth assay (MTS), PC3-mm2; type: cell-based; settings: Homo sapiens, PC3MM2, 72 h, three days after drug treatment, read-out: IC50 PC3-mm2
[2] = test system: human breast MDA-MB-361 tumor cell line; assay: In vitro cell culture growth assay (MTS), MDA-MB-361; type: cell-based; settings: Homo sapiens, three days after drug treatment, read-out: IC50 MDA-MB-361
[3] = target: PI3K-α (Homo sapiens, UniProt P42336); assay: PI3K-alpha fluorescence polarization assay; settings: read-out: IC50 PI3Kα
[4] = target: Human mTOR (FLAG-TOR) (Homo sapiens, UniProt P42345); assay: mTOR kinase assay (DELFIA format, purified enzyme); type: biochemical; settings: read-out: IC50 mTOR
[5] = target: PI3K-γ (Homo sapiens, UniProt P48736); assay: PI3K-gamma fluorescence polarization assay; settings: read-out: IC50 PI3Kγ
[6] = MTS cell growth assay, PC3-mm2 cells
[7] = 72 h, MTS cell growth assay, MDA-MB-361 cells
[8] = MDA-MB-361, 72 h, MTS cell growth assay
[9] = MDA-MB-361, 72 h, MTS cell growth assay, MDA-MB-361 cells

Human mTOR (FLAG-TOR), sequence (P42345 1360-2549 limits assumed): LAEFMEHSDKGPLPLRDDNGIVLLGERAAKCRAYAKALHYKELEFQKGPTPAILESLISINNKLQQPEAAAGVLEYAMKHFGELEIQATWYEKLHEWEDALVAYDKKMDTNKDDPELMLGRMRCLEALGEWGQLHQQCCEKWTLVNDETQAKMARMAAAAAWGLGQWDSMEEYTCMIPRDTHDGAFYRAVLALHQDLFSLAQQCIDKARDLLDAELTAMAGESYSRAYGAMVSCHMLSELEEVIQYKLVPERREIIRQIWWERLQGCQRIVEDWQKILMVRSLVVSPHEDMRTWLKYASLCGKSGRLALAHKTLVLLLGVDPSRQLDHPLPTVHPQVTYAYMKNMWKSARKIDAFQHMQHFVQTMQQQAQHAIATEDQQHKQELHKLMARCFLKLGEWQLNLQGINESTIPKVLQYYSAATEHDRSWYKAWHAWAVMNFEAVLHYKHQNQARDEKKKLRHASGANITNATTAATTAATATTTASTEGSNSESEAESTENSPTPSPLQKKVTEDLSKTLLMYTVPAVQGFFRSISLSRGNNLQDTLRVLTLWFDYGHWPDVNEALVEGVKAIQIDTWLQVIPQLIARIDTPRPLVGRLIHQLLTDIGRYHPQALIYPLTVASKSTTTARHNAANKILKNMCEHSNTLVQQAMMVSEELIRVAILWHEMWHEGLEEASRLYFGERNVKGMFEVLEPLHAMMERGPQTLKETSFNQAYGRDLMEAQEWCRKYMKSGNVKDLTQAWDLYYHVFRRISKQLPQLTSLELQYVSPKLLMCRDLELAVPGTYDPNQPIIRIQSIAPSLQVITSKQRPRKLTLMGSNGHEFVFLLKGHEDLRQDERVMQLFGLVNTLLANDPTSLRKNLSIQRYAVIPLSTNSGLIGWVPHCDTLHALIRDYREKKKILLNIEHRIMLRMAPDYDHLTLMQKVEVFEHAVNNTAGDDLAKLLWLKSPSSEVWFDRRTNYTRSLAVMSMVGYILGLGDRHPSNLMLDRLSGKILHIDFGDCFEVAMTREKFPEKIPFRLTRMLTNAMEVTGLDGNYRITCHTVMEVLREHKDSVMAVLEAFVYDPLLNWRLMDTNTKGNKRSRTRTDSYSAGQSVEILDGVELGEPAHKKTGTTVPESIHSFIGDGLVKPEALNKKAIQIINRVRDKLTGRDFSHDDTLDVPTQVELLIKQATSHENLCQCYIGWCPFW
PI3K-α, sequence (P42336 whole entry, species assumed): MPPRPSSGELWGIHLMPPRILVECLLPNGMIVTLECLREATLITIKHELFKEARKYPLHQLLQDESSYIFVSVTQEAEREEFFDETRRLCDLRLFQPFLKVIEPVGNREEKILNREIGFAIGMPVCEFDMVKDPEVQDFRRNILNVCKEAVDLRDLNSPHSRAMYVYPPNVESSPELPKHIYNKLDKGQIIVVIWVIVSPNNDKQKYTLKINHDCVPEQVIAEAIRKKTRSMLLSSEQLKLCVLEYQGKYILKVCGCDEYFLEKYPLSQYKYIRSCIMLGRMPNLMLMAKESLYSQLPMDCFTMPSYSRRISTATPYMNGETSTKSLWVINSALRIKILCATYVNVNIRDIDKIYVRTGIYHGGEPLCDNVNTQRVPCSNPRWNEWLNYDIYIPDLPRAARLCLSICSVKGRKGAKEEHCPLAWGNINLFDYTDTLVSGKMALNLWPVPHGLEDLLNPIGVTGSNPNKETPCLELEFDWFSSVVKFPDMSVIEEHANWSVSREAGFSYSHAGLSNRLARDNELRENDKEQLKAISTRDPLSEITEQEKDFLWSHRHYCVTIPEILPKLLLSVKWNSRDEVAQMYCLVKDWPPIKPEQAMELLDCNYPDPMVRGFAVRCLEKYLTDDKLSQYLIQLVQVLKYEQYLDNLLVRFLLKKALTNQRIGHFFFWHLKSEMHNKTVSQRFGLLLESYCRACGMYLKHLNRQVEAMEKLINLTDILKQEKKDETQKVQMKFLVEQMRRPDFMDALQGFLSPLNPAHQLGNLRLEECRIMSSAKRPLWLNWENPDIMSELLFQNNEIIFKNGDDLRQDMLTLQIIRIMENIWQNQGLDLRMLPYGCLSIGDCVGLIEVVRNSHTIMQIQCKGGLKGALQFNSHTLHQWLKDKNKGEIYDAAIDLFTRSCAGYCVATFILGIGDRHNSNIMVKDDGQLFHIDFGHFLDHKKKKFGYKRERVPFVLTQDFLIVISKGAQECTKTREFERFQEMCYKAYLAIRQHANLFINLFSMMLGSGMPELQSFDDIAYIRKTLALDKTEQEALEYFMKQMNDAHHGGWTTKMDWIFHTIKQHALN
PI3K-α, sequence (P27986 whole entry partner, species assumed): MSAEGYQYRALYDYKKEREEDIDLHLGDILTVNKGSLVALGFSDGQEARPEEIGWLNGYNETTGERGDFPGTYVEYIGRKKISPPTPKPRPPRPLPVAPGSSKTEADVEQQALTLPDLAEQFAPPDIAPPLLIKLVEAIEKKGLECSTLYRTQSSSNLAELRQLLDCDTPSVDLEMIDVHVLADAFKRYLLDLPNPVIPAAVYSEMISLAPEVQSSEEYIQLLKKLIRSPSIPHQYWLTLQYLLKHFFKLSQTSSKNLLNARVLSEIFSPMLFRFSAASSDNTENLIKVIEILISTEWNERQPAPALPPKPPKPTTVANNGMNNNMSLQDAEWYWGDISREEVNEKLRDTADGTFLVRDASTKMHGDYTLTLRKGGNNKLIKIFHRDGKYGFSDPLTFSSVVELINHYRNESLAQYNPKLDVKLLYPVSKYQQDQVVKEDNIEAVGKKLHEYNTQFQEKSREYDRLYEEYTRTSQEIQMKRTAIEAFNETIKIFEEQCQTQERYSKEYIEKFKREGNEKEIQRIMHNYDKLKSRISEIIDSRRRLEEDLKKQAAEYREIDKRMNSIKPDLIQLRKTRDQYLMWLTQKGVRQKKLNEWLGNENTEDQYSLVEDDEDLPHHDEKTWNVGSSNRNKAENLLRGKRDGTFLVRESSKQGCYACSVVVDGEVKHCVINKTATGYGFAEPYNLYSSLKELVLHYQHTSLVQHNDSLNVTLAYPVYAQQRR
PI3K-γ, sequence (P48736 whole entry, species assumed): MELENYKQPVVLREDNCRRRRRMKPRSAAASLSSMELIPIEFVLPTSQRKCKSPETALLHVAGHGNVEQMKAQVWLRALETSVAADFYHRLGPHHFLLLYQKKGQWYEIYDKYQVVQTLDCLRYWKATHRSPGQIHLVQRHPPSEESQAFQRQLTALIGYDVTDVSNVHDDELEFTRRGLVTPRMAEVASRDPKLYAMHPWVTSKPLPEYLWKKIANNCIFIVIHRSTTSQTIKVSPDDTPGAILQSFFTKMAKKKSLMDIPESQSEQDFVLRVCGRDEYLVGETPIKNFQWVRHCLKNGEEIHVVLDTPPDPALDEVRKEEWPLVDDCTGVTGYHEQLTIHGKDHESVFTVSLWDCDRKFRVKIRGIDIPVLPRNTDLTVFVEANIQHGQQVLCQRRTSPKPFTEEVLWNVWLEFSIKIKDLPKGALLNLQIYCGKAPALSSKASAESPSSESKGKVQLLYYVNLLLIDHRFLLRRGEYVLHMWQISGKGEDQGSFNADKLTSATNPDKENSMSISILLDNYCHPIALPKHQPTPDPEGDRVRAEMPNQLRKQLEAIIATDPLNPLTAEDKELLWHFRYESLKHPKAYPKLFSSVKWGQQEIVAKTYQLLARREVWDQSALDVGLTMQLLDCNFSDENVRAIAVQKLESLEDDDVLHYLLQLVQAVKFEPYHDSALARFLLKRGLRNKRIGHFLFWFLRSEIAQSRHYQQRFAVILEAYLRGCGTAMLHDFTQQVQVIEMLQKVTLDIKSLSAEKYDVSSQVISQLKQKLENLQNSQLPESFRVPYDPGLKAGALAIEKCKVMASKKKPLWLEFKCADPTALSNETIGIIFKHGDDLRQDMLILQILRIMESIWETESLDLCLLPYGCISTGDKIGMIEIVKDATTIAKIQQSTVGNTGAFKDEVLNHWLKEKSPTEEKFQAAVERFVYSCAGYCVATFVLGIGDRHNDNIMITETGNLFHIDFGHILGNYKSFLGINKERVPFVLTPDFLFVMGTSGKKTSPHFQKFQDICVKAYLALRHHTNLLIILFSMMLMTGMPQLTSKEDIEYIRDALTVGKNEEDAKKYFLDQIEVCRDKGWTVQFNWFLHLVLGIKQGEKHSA

Row | Compound | IC50 [1, 6] [nM] | IC50 [2, 7] [nM] | IC50 [3] [nM] | IC50 [4] | IC50 [5] [nM] | IC50 ([1]; MTS cell growth assay) [nM] | IC50 ([3]; listed as 506) [nM] | IC50 ([5]; listed as 506) [nM] | IC50 [2, 8] [nM] | IC50 ([1]; PC3-mm2 cells, MTS) [nM] | IC50 ([2]; 72 h, MDA-MB-361 cells, MTS) [nM] | IC50 [2, 9] [nM] | IC50 ([3]; listed as 507) [nM] | IC50 ([5]; listed as 507) [nM] | IC50 ([3]; listed as 505) [nM] | IC50 ([5]; listed as 505) [nM]
1 | CN(C)CCN(C)C(=O)c1ccc(NC(=O)Nc2ccc(-c3nc(N4CCOCC4)nc(N4C5COCC4COC5)n3)cc2)cc1 [Example 768, N-[2-(dimethylamino)ethyl]-4-[({4-[4-(3,7-dioxa-9-azabicyclo[3.3.1]non-9-yl)-6-morpholin-4-yl-1,3,5-triazin-2-yl]phenyl}carbamoyl)amino]-N-methylbenzamide] | 8 | 7 | 1.2 | 0.115 nM | 18.5 | – | – | – | – | – | – | – | – | – | – | –
2 | CN(C)CCN(C)C(=O)c1ccc(NC(=O)Nc2ccc(-c3nc(C4=CCOCC4)nc(N4CCOCC4)n3)cc2)cc1 [Example 240, 4-[({4-[4-(3,6-dihydro-2H-pyran-4-yl)-6-morpholin-4-yl-1,3,5-triazin-2-yl]phenyl}carbamoyl)amino]-N-[2-(dimethylamino)ethyl]-N-methylbenzamide] | 12 | < 21.7 | 1 | 1.6 nM | 6 | 12 | 0.3 | 7 | – | – | – | – | – | – | – | –
3 | CCc1nc(-c2ccc(NC(=O)Nc3ccc(C(=O)NC4CCN(C)CC4)cc3)cc2)nc(N2CCOCC2)n1 [Example 271, 4-({[4-(4-ethyl-6-morpholin-4-yl-1,3,5-triazin-2-yl)phenyl]carbamoyl}amino)-N-(1-methylpiperidin-4-yl)benzamide] | – | – | 2 | 13 nM | 23 | 129 | – | – | 68 | – | – | – | – | – | – | –
4 | CC(C)c1nc(-c2ccc(NC(=O)Nc3ccc(C(=O)NC4CCC4)cc3)cc2)nc(N2CCOCC2)n1 [Example 311, N-cyclobutyl-4-[({4-[4-(1-methylethyl)-6-morpholin-4-yl-1,3,5-triazin-2-yl]phenyl}carbamoyl)amino]benzamide] | – | – | 40 | 12 nM | 125 | 366 | – | – | 126 | – | – | – | – | – | – | –
5 | CN(C)CCN(C)C(=O)c1ccc(NC(=O)Nc2ccc(-c3nc(N4CCOCC4)nc(N4C5CCCC4COC5)n3)cc2)cc1 [Example 795, N-[2-(dimethylamino)ethyl]-N-methyl-4-[({4-[4-morpholin-4-yl-6-(3-oxa-9-azabicyclo[3.3.1]non-9-yl)-1,3,5-triazin-2-yl]phenyl}carbamoyl)amino]benzamide] | – | – | 2.7 | 0.425 nM | 26.5 | – | – | – | – | 10 | < 3.2 | – | – | – | – | –
6 | CCc1nc(-c2ccc(NC(=O)Nc3ccc(C(=O)NC4CN(C)C4)cc3)cc2)nc(N2CCOCC2)n1 [Example 299, 4-({[4-(4-ethyl-6-morpholin-4-yl-1,3,5-triazin-2-yl)phenyl]carbamoyl}amino)-N-(1-methylazetidin-3-yl)benzamide] | – | – | 3 | 80 nM | 34 | 219 | – | – | 73 | – | – | – | – | – | – | –
7 | O=C(Nc1ccc(C(=O)O)cc1)Nc1ccc(-c2nc(N3CCOCC3)nc(N3C4CCC3COC4)n2)cc1 [Example 764, 4-[({4-[4-morpholin-4-yl-6-(3-oxa-8-azabicyclo[3.2.1]oct-8-yl)-1,3,5-triazin-2-yl]phenyl}carbamoyl)amino]benzoic acid] | 678 | – | 8.5 | 0.21 nM | 67.5 | – | – | – | – | – | – | 628 | – | – | – | –
8 | CN(C)CCNC(=O)c1ccc(NC(=O)Nc2ccc(-c3nc(N4CCOCC4)nc(N4C5CCCC4COC5)n3)cc2)cc1 [Example 796, N-[2-(dimethylamino)ethyl]-4-[({4-[4-morpholin-4-yl-6-(3-oxa-9-azabicyclo[3.3.1]non-9-yl)-1,3,5-triazin-2-yl]phenyl}carbamoyl)amino]benzamide] | – | – | 2.6 | 0.39 nM | 31.5 | – | – | – | – | 18 | 2 | – | – | – | – | –
9 | Cc1cc(NC(=O)Nc2ccc(-c3nc(OC4CCOCC4)nc(N4CCOCC4)n3)cc2)ccn1 [Example 63, 1-(2-methylpyridin-4-yl)-3-{4-[4-morpholin-4-yl-6-(tetrahydro-2H-pyran-4-yloxy)-1,3,5-triazin-2-yl]phenyl}urea] | – | – | 5 | 1.95 nM | 36 | 62 | – | – | 69 | – | – | – | – | – | – | –
10 | CC(C)c1nc(-c2ccc(NC(=O)Nc3ccc(C(=O)N(C)CCN(C)C)cc3)cc2)nc(N2CCOCC2)n1 [Example 306, N-[2-(dimethylamino)ethyl]-N-methyl-4-[({4-[4-(1-methylethyl)-6-morpholin-4-yl-1,3,5-triazin-2-yl]phenyl}carbamoyl)amino]benzamide] | – | – | 1 | 2.1 nM | 19 | 30 | – | – | 7 | – | – | – | – | – | – | –
11 | CN1CCN(C(=O)c2ccc(NC(=O)Nc3ccc(-c4nc(C5=CCOCC5)nc(N5CCOCC5)n4)cc3)cc2)CC1 [Example 163, 1-{4-[4-(3,6-dihydro-2H-pyran-4-yl)-6-morpholin-4-yl-1,3,5-triazin-2-yl]phenyl}-3-{4-[(4-methylpiperazin-1-yl)carbonyl]phenyl}urea] | 28.3 | – | 2 | 3.9 nM and 3.2 nM | 9 | 28.3 | – | – | 10.7 | – | – | 10.7 | 1.6 | 8.7 | – | –
12 | CNCCN(C)C(=O)c1ccc(NC(=O)Nc2ccc(-c3nc(N4CCOCC4)nc(N4C5CCCC4COC5)n3)cc2)cc1 [Example 802, N-methyl-N-[2-(methylamino)ethyl]-4-[({4-[4-morpholin-4-yl-6-(3-oxa-9-azabicyclo[3.3.1]non-9-yl)-1,3,5-triazin-2-yl]phenyl}carbamoyl)amino]benzamide] | – | – | 3.5 | 0.675 nM | 23 | – | – | – | – | 50 | 3 | – | – | – | – | –
13 | CN1CCN(C(=O)c2ccc(NC(=O)Nc3ccc(-c4nc(N5CCOCC5)nc(N5C6CCC5COC6)n4)cc3)cc2)CC1 [Example 697, 1-{4-[(4-methylpiperazin-1-yl)carbonyl]phenyl}-3-{4-[4-morpholin-4-yl-6-(3-oxa-8-azabicyclo[3.2.1]oct-8-yl)-1,3,5-triazin-2-yl]phenyl}urea] | < 30 | – | 2.7 | 0.459 nM | 42.7 | – | – | – | – | – | – | < 30 | – | – | – | –
14 | C[C@H]1COCCN1c1nc(-c2ccc(NC(=O)Nc3ccncc3)cc2)nc(N2CCOCC2)n1 [Example 89, 1-(4-{4-[(3S)-3-methylmorpholin-4-yl]-6-morpholin-4-yl-1,3,5-triazin-2-yl}phenyl)-3-pyridin-4-ylurea] | – | – | 10 | 1.6 nM | 31 | 47 | – | – | 30 | – | – | – | – | – | – | –
15 | CN(C)C1CCN(C(=O)c2ccc(NC(=O)Nc3ccc(-c4nc(C5=CCOCC5)nc(N5CCOCC5)n4)cc3)cc2)CC1 [Example 283, 1-{4-[4-(3,6-dihydro-2H-pyran-4-yl)-6-morpholin-4-yl-1,3,5-triazin-2-yl]phenyl}-3-(4-{[4-(dimethylamino)piperidin-1-yl]carbonyl}phenyl)urea] | 33.3 | – | 1 | 3.1 nM | 11 | 33.3 | – | – | 12.3 | – | – | 12.3 | – | – | 0.6 | 5
16 | O=C(Nc1ccncc1)Nc1ccc(-c2nc(N3CCCOCC3)nc(N3CCOCC3)n2)cc1 [Example 566, 1-{4-[4-morpholin-4-yl-6-(1,4-oxazepan-4-yl)-1,3,5-triazin-2-yl]phenyl}-3-pyridin-4-ylurea] | 55 | 28 | 2.6 | 2 nM | 18 | – | – | – | – | – | – | – | – | – | – | –
